Laboratory results published in patent US20230365577A1, “Photodynamic Therapy and Diagnosis” (RMW CHO Group Limited, priority 2020, published 2023).
Counter-ions that a name gives are not always drawn. Like-named read-outs stand apart in the source and are kept apart here.

What was measured:
[1] = Singlet oxygen (1O2) production rate; format: physicochemical
Excerpt: The production of singlet oxygen (^1O2), cellular phototoxicity and light-independent cytotoxicity (“dark toxicity”) of a number of phyllochlorin analogues were compared against chlorin e4 disodium and Talaporfin sodium (mono-L-aspartyl chlorin e6), the active ingredient of Laserphyrin™.

[2] = tested on: SKOV3 ovarian cancer cells; assay: Phototoxicity in SKOV3 cells (652 nm laser, AlamarBlue viability); format: cell-based, Human
Procedure: (§1) Human ovarian cancer cell line SKOV3 (ATCC #HTB-77) was maintained in Dulbecco's Modified Eagle Medium/Nutrient Mixture F-12 (DMEM/F-12), supplemented with 10% v/v Fetal Bovine Serum, 100 U/mL penicillin and 100 µg/mL streptomycin. Monolayer cultures were grown in a humidified incubator at 37° C. with 5% CO2.
(§2) For in vitro experiments, photosensitizers (stock solution 5.5 mM in 100% DMSO) were diluted in cell culture media (Dulbecco's Modified Eagle Medium/Nutrient Mixture F-12) supplemented with 10% v/v Fetal Bovine Serum, 100 U/mL penicillin, 100 µg/mL streptomycin and 10% w/v Kollidon-12. Once cells had reached ˜80% confluence, spent media was replaced with media containing photosensitizer and cells were incubated for the desired period of time to allow photosensitizer uptake.
SKOV3 cells were seeded in 96-well black wall plates (Greiner #655090) at a cell density of 5000 cells in 100 μl culture medium per well. On reaching ˜60% confluence, so media was aspirated and replaced with fresh media containing the relevant phyllochlorin analogue from 0-100 μM in DMSO. Cells were incubated for a further 24 hours, allowing uptake of phyllochlorin analogues.
To test for phototoxicity, cells incubated with phyllochlorin analogues (0-10 μM in DMSO) had culture media replaced after 24 hours (as above) and were then exposed to a 652 nm laser (Invion) with laser density at 50 mW/cm^2 for 5 mins (total 15 J/cm^2). Following activation, cells were cultured for a further 24 hours. Media was then replaced with fresh media containing AlamarBlue, and % viable cells remaining assessed as above. Controls included cells treated with phyllochlorin analogues but not activated by laser light; cells without phyllochlorin analogue treatment but with laser light; and untreated controls. All measurements were made in quadruplicate.
(§3) For comparative purposes, phyllochlorin analogues were tested and compared against both chlorin e4 disodium and Talaporfin sodium, a clinically approved photosensitizer used in the photodynamic treatment of lung cancers. Phototoxicity IC90 values and dark toxicity IC10 values were calculated using a log[inhibitor]-vs normalized response dose curve with variable slope, using the formula Y=100/(1+(IC90/X)^HillSlope (phototoxicity IC90) or Y=100/(1+(IC10/X)^HillSlope (dark toxicity IC10).

[3] = tested on: SKOV3 ovarian cancer cells; assay: Inherent cytotoxicity (dark toxicity) in SKOV3 cells (AlamarBlue viability); format: cell-based, Human
Procedure: as §1, §2
SKOV3 cells were seeded in 96-well black wall plates (Greiner #655090) at a cell density of 5000 cells in 100 μl culture medium per well. On reaching ˜60% confluence, media was aspirated and replaced with fresh media containing the relevant phyllochlorin analogue from 0-100 μM in DMSO. Cells were incubated for a further 24 hours, allowing uptake of phyllochlorin analogues.
To test for inherent cytotoxicity (i.e. “dark toxicity”) of the phyllochlorin analogue the culture media was replaced after 24 hours with fresh media containing 10% (v/v) AlamarBlue Cell Viability Reagent (ThermoFisher) and cells incubated at 37° C. for 6 hours. Untreated cells were used as a control. Fluorescence (Ex 555 nm/Em 596 nm) was measured using a Cytation 3 Multimode Plate Reader (Biotek), and cytotoxicity assessed according to the % viable cells remaining. All measurements were made in quadruplicate.
as §3

[4] = SKOV3, 24 h uptake, 652 nm laser 50 mW/cm2 5 mins (15 J/cm2), viability 24 h later, read-out: Cellular Toxicity: Phototoxicity IC90
[5] = Homo sapiens, SK-OV-3, light or radiation study, SKOV3, 24 h uptake, 652 nm laser 50 mW/cm2 5 mins (15 J/cm2), viability 24 h later, read-out: Cellular Toxicity: Phototoxicity IC90
[6] = Homo sapiens, SK-OV-3, light or radiation study, SKOV3, read-out: Phototoxicity apparent IC90
[7] = Homo sapiens, SK-OV-3, light or radiation study, read-out: Cellular Toxicity: Phototoxicity IC90, SKOV3, 24 h uptake, 652 nm laser 50 mW/cm2 5 mins (15 J/cm2), viability 24 h later

Molecule	Singlet Oxygen Production (slope) 1O2 [1]	Cellular Toxicity: Dark toxicity IC10 ([3]; human, 24 h)	IC90 [2, 5]	further results
3-((7S,8S)-18-ethyl-2,5,8,12,17-pentamethyl-13-vinyl-7H,8H-porphyrin-7-yl)-N-(2-(2-hydroxyethoxy)ethyl)-N-methylpropanamide zinc complex [Compound 21]	423.4			Fold decrease in the rate of ROS production on Zn2+ complexation ([1]; compound 21 versus compound 18): ~2.5 fold; IC90 [2, 4]: 4770 nM; Cellular Toxicity: Dark toxicity IC10 [3]: 8170 nM
3-((7S,8S)-18-ethyl-2,5,8,12,17-pentamethyl-13-vinyl-7H,8H-porphyrin-7-yl)-N-methyl-N-(3-(((2S,3R,4S,5S,6R)-3,4,5-trihydroxy-6-(hydroxymethyl)tetrahydro-2H-pyran-2-yl)thio)propyl)propanamide zinc complex [Compound 19]	404.7			IC90 [2, 4]: 12800 nM; Cellular Toxicity: Dark toxicity IC10 [3]: 20200 nM
C=Cc1c(C)c2cc3nc(c(C)c4cc(C)c(cc5nc(cc1[nH]2)C(C)=C5CC)[nH]4)[C@@H](CCC(=O)O)[C@@H]3C [Compound 1a, phyllochlorin potassium salt]		12410 nM		Singlet Oxygen Production (slope) 1O2 ([1]; potassium salt): 760.9; IC90 ([2]; SKOV3, 24 h uptake, 652 nm laser 50 mW/cm2 5 mins (15 J/cm2), viability 24 h later, potassium salt, read-out: Cellular Toxicity: Phototoxicity IC90): 470 nM
C=Cc1c(C)c2cc3nc(c(C)c4cc(C)c(cc5nc(cc1[nH]2)C(C)=C5CC)[nH]4)[C@@H](CCC(=O)O)[C@@H]3C [Compound 1b, phyllochlorin lithium salt]		22130 nM		Singlet Oxygen Production (slope) 1O2 ([1]; lithium salt): 841.7; IC90 ([2]; SKOV3, 24 h uptake, 652 nm laser 50 mW/cm2 5 mins (15 J/cm2), viability 24 h later, lithium salt, read-out: Cellular Toxicity: Phototoxicity IC90): 1400 nM
C=Cc1c(C)c2cc3nc(c(C)c4cc(C)c(cc5nc(cc1[nH]2)C(C)=C5CC)[nH]4)[C@@H](CCC(=O)O)[C@@H]3C [Compound 1d, phyllochlorin arginine salt]	833.9	18150 nM		IC90 ([2]; read-out: Cellular Toxicity: Phototoxicity IC90, SKOV3, 24 h uptake, 652 nm laser 50 mW/cm2 5 mins (15 J/cm2), viability 24 h later): 1420 nM
C=Cc1c(C)c2cc3nc(c(C)c4cc(C)c(cc5nc(cc1[nH]2)C(C)=C5CC)[nH]4)[C@@H](CCC(=O)O)[C@@H]3C [Compound 1e, phyllochlorin meglumine salt]	938.8	20730 nM		IC90 [2, 4]: 1790 nM
C=Cc1c(C)c2cc3nc(c(C)c4cc(C)c(cc5nc(cc1[nH]2)C(C)=C5CC)[nH]4)[C@@H](CCC(=O)N(C)CCOCCOCCO)[C@@H]3C [Compound 4, 3-((7S,8S)-18-ethyl-2,5,8,12,17-pentamethyl-13-vinyl-7H,8H-porphyrin-7-yl)-N-(2-(2-(2-hydroxyethoxy)ethoxy)ethyl)-N-methylpropanamide]	2191.0	16410 nM	120 nM	
C=Cc1c(C)c2cc3nc(c(C)c4cc(C)c(cc5nc(cc1[nH]2)C(C)=C5CC)[nH]4)[C@@H](CCC(=O)N(C)CCCO)[C@@H]3C [Compound 5, 3-((7S,8S)-18-ethyl-2,5,8,12,17-pentamethyl-13-vinyl-7H,8H-porphyrin-7-yl)-N-(3-hydroxypropyl)-N-methylpropanamide]	2385.0	20820 nM	50 nM	Rate of ROS production relative to chlorin e4 disodium and Talaporfin sodium [1]: more than double; IC90 [2, 6]: < 100 nM
C=Cc1c(C)c2cc3nc(c(C)c4cc(C)c(cc5nc(cc1[nH]2)C(C)=C5CC)[nH]4)[C@@H](CCC(=O)N(C)CCCCCO)[C@@H]3C [Compound 7, 3-((7S,8S)-18-ethyl-2,5,8,12,17-pentamethyl-13-vinyl-7H,8H-porphyrin-7-yl)-N-(5-hydroxypentyl)-N-methylpropanamide]	1494.0	14270 nM	50 nM	IC90 [2, 6]: < 100 nM
C=Cc1c(C)c2cc3nc(c(C)c4cc(C)c(cc5nc(cc1[nH]2)C(C)=C5CC)[nH]4)[C@@H](CCC(=O)N(C)CCCCCS[C@@H]1O[C@H](CO)[C@@H](O)[C@H](O)[C@H]1O)[C@@H]3C [Compound 8, 3-((7S,8S)-18-ethyl-2,5,8,12,17-pentamethyl-13-vinyl-7H,8H-porphyrin-7-yl)-N-methyl-N-(5-(((2S,3R,4S,5S,6R)-3,4,5-trihydroxy-6-(hydroxymethyl)tetrahydro-2H-pyran-2-yl)thio)pentyl)propanamide]	1314.0	12550 nM	60 nM	IC90 [2, 6]: < 100 nM; Fold increase in cellular phototoxicity compared to compound 2 ([2]; SKOV3, IC90): approximately 4 fold
C=Cc1c(C)c2cc3nc(c(C)c4cc(C)c(cc5nc(cc1[nH]2)C(C)=C5CC)[nH]4)[C@@H](CCC(=O)N(C)CCC[S+]([O-])[C@@H]1O[C@H](CO)[C@@H](O)[C@H](O)[C@H]1O)[C@@H]3C (stereo partly drawn) [Compound 9, 3-((7S,8S)-18-ethyl-2,5,8,12,17-pentamethyl-13-vinyl-7H,8H-porphyrin-7-yl)-N-methyl-N-(3-(((2S,3R,4S,5S,6R)-3,4,5-trihydroxy-6-(hydroxymethyl)tetrahydro-2H-pyran-2-yl)thio)propyl)propanamide sulphoxide]	1396.0	70240 nM		IC90 [2, 7]: 190 nM
C=Cc1c(C)c2cc3nc(c(C)c4cc(C)c(cc5nc(cc1[nH]2)C(C)=C5CC)[nH]4)[C@@H](CCC(=O)N(C)CCO)[C@@H]3C [Compound 10, 3-((7S,8S)-18-ethyl-2,5,8,12,17-pentamethyl-13-vinyl-7H,8H-porphyrin-7-yl)-N-(2-hydroxyethyl)-N-methylpropanamide]	1691.0	14940 nM	160 nM	
C=Cc1c(C)c2cc3nc(c(C)c4cc(C)c(cc5nc(cc1[nH]2)C(C)=C5CC)[nH]4)[C@@H](CCC(=O)N(C)CCCS[C@@H]1O[C@H](COC(C)=O)[C@@H](OC(C)=O)[C@H](OC(C)=O)[C@H]1OC(C)=O)[C@@H]3C [Compound 11, (2R,3R,4S,5R,6S)-2-(acetoxymethyl)-6-((3-(3-((7S,8S)-18-ethyl-2,5,8,12,17-pentamethyl-13-vinyl-7H,8H-porphyrin-7-yl)-N-methylpropanamido)propyl)thio)tetrahydro-2H-pyran-3,4,5-triyl triacetate]	1434.0	29000 nM		IC90 [2, 7]: 500 nM
